Among the data in PubChem BioAssay (NCI) are TGI and GI50 values, retold here.

Each structure is given as a SMILES string.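 Method: 48-hour compound exposure of cells in 96-well plates, five concentrations, linear interpolation of endpoints. GI50 marks 50% less growth. At the TGI there is no net growth.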

Among the test systems are BT-549 breast; MDA-MB-435; MDA-MB-231 breast; MCF7 breast.
Holding throughout (assay): NCI-60 cell line screen, 48 h

Take `Cn1c2ccccc2c2ccc3c(c21)C(=O)c1ccccc1C3=O`: the TGI with BT-549 breast was 50.9 µM; in the experiment with MDA-MB-435, 32.2 µM; in the experiment on MDA-MB-231 breast, 64.2 µM.
On to `Cc1ccc(C(=O)N(CCCN)C(c2oc3cc(Cl)ccc3c(=O)c2Cc2ccccc2)C(C)C)cc1` (stereo not given), for which the GI50 in the experiment with BT-549 breast is less than 0.01 µM; in the experiment with MCF7 breast, less than 10 nM; in the experiment on MDA-MB-435, less than 0.01 µM; in the experiment with MDA-MB-231 breast, less than 0.01 µM. In addition, the TGI was 2.03 µM in the experiment with BT-549 breast, 1.39 µM in the experiment with MCF7 breast and less than 0.01 µM in the experiment with MDA-MB-435.
On to `O=C(O)CCNC1CCCCC1`, for which the GI50 in the experiment with BT-549 breast was greater than 100 µM; with MCF7 breast, greater than 100000 nM; in the experiment with MDA-MB-435 it was greater than 100 µM; with MDA-MB-231 breast it was greater than 100 µM. Further, the TGI with BT-549 breast, with MCF7 breast, with MDA-MB-435 and in the experiment on MDA-MB-231 breast was greater than 100 µM in each case.
For `O=C1CCC(N2C(=O)c3ccccc3C2=O)C(=O)N1CO` (stereo not given), the GI50 with BT-549 breast was 52.6 µM; in the experiment on MCF7 breast it was 26600 nM; in the experiment with MDA-MB-435 it was greater than 100 µM; in the experiment with MDA-MB-231 breast, greater than 100 µM. Also, the TGI in the experiment with BT-549 breast, with MCF7 breast, in the experiment on MDA-MB-435 and in the experiment on MDA-MB-231 breast was greater than 100 µM throughout.
As for `Nc1nc2c(nnn2C2CC(O)C(CO)O2)c(=O)[nH]1` (stereo not given), the GI50 in the experiment with BT-549 breast was 4.14 µM; with MCF7 breast, 4210 nM; in the experiment with MDA-MB-435 it was 4.35 µM; in the experiment with MDA-MB-231 breast it was 5.41 µM. Further, the TGI in the experiment on BT-549 breast was greater than 59.9 µM; in the experiment with MCF7 breast, greater than 100 µM; in the experiment with MDA-MB-435, greater than 100 µM; in the experiment with MDA-MB-231 breast it was greater than 100 µM.
As for `CS(=O)(=O)c1ccc(-n2nc(C(F)(F)F)cc2OC2CCCC2)cc1`, the GI50 in the experiment with BT-549 breast is 28.5 µM; in the experiment on MCF7 breast, 25400 nM; in the experiment with MDA-MB-435 it was 59.6 µM; in the experiment on MDA-MB-231 breast it was 26 µM. Moreover, the TGI is 73 µM in the experiment with BT-549 breast, 80.2 µM in the experiment on MCF7 breast, greater than 100 µM in the experiment on MDA-MB-435 and 71.2 µM with MDA-MB-231 breast.
In the case of `Cc1ccc(-c2nc3nc(-c4ccccc4)nc(N4CCCNCC4)c3o2)cc1`, the GI50 is 1.63 µM with BT-549 breast, 1480 nM with MCF7 breast, 1.93 µM in the experiment with MDA-MB-435 and 1.81 µM in the experiment with MDA-MB-231 breast. Further, the TGI in the experiment with BT-549 breast came to 3.19 µM; with MCF7 breast, 3.5 µM; with MDA-MB-435, 3.42 µM; with MDA-MB-231 breast, 3.32 µM.
Consider `CCCCCCCC[C@@H](O)CC(=O)N[C@@H](CC(N)=O)C(=O)N[C@@H](CCC(N)=O)C(=O)N[C@@H](CC(=O)c1cc(C)cc(O)c1C(=O)c1c(O)cccc1O)CC(C)C`, for which the GI50 in the experiment on BT-549 breast was 0.296 µM; in the experiment on MCF7 breast, 539 nM; in the experiment with MDA-MB-231 breast, 0.678 µM. Moreover, the figures for the TGI with BT-549 breast, with MCF7 breast and with MDA-MB-231 breast were 2.25 µM, greater than 100 µM and 68.3 µM, respectively.
As for `Cc1ccc2c(c1)Sc1c(ccc3ccccc13)N2`, the GI50 in the experiment on BT-549 breast was 28.5 µM; in the experiment on MCF7 breast it was greater than 100000 nM; with MDA-MB-435, greater than 100 µM; with MDA-MB-231 breast it was 42.1 µM. Besides, the TGI in the experiment on BT-549 breast, in the experiment on MCF7 breast, with MDA-MB-435 and with MDA-MB-231 breast was greater than 100 µM throughout.
As for `O=c1cc(-c2ccccc2)oc2cc(OC/C(=N/O)c3ccccc3)ccc12`, the GI50 in the experiment with BT-549 breast is 12.4 µM; in the experiment with MDA-MB-435, greater than 50 µM; in the experiment with MDA-MB-231 breast it was 6.98 µM. In addition, the figures for the TGI in the experiment on BT-549 breast, with MDA-MB-435 and in the experiment on MDA-MB-231 breast were 27.8 µM, greater than 50 µM and 23.9 µM, respectively.
`CC1(C)OC2=C(CC1Br)C(=O)C(=O)c1ccccc12` (stereo not given): the GI50 with BT-549 breast was 1.85 µM; in the experiment with MCF7 breast, 1680 nM; in the experiment on MDA-MB-435, 1.69 µM; in the experiment on MDA-MB-231 breast, 2.35 µM. Also, the TGI in the experiment on BT-549 breast was 3.34 µM; in the experiment with MCF7 breast, 3.74 µM; in the experiment with MDA-MB-435, 3.35 µM; in the experiment on MDA-MB-231 breast, 6.42 µM.
For `O=C(Nc1ccncc1)C(=O)c1cn(S(=O)(=O)c2cccc(F)c2)c2ccccc12`, the GI50 in the experiment on BT-549 breast was 2.29 µM; in the experiment with MCF7 breast, 719 nM; with MDA-MB-435 it was 0.385 µM; with MDA-MB-231 breast, 10.8 µM. Besides, the TGI was 86.8 µM in the experiment on BT-549 breast, greater than 100 µM with MCF7 breast, 4.02 µM in the experiment with MDA-MB-435 and greater than 100 µM in the experiment on MDA-MB-231 breast.
`O=C(O)/C=C(\c1nc2ccc([N+](=O)[O-])cc2[nH]1)c1cc(Cl)ccc1O`: the GI50 was 2.3 µM in the experiment with BT-549 breast, 2360 nM in the experiment with MCF7 breast, 2.84 µM with MDA-MB-435 and 2.11 µM in the experiment on MDA-MB-231 breast. In addition, the TGI amounted to 7.25 µM with BT-549 breast, 16.6 µM in the experiment with MCF7 breast, 34.5 µM in the experiment with MDA-MB-435 and 9.25 µM in the experiment on MDA-MB-231 breast.
As for `N#CC(C#N)=C1Nc2ccccc2S1`, the figures for the GI50 in the experiment on MCF7 breast, in the experiment with MDA-MB-435 and with MDA-MB-231 breast were 33500 nM, 30.3 µM and 43.4 µM, respectively. In addition, the TGI in the experiment on MCF7 breast, in the experiment with MDA-MB-435 and in the experiment with MDA-MB-231 breast was greater than 100 µM throughout.
Turning to `O=S(=O)(NC1=NCCN1C(=S)SN1CCn2c1nsc2=S)c1cccc(Cl)c1`, the GI50 in the experiment on BT-549 breast was 22.3 µM; in the experiment with MCF7 breast it was 15900 nM; with MDA-MB-435, 9.69 µM; in the experiment on MDA-MB-231 breast, 15.3 µM. Besides, the TGI was determined as 68.4 µM in the experiment with BT-549 breast, 36.3 µM in the experiment on MCF7 breast, 27.7 µM in the experiment with MDA-MB-435 and 50.7 µM with MDA-MB-231 breast.
As to `C=C(C[C@](O)(C(=O)/C=C/c1ccc(Cl)cc1)C(=O)OC)c1ccccc1`, the GI50 with BT-549 breast is 2.86 µM; in the experiment on MCF7 breast, 456 nM; in the experiment on MDA-MB-435, 1.95 µM. The TGI in the experiment with BT-549 breast was found to be 10.7 µM; with MCF7 breast, 4.38 µM; in the experiment with MDA-MB-435 it was 4.84 µM.
In the case of `CS(=O)(=O)CCNCc1ccc(-c2ccc3ncnc(Nc4ccc(OCc5ccccc5)cc4)c3c2)o1`, the GI50 is 5.85 µM with BT-549 breast, 2840 nM in the experiment on MCF7 breast, 4.94 µM in the experiment with MDA-MB-435 and 4.82 µM in the experiment on MDA-MB-231 breast. Moreover, the TGI is 17.5 µM in the experiment with BT-549 breast, greater than 17.7 µM with MCF7 breast, 11.4 µM in the experiment with MDA-MB-435 and 11.1 µM in the experiment with MDA-MB-231 breast.
Turning to `Cc1ccc(C(=O)NC(C)C)cc1-c1ccc(C(=O)NCC2CC2)cc1`, the GI50 in the experiment on BT-549 breast was greater than 25 µM; in the experiment with MCF7 breast, greater than 25000 nM; in the experiment with MDA-MB-435, greater than 25 µM; with MDA-MB-231 breast, greater than 25 µM. For the same compound, the TGI in the experiment on BT-549 breast, in the experiment with MCF7 breast, in the experiment with MDA-MB-435 and with MDA-MB-231 breast was greater than 25 µM each time.
